From patent US8394434B2, “SCF extract containing cardiac glycoside” (Phoenix Biotechnology, Inc., priority 2005, dated 2013)

Key:
[1] = system: Human pancreatic cancer PANC-1 cells; test: Cytotoxicity comparison, crystal violet staining (Example 10); format: cell-based; conditions: presented as μM oleandrin concentration in the extract, 72 hr incubation
Protocol: (§1) The extracts also differ in their relative performance as determined by efficacy against several tumor cell lines (Example 10). Oleandrin-containing samples were prepared to contain the same amount of oleandrin although the concentration of oleandrin in each sample varied due to the differences in the concentration of in the extracts. The data obtained are summarized in the table below and in FIGS. 4 and 5.
(§2) The cytotoxic potential of both extracts are compared directly with that of oleandrin. The samples contained the same amounts of oleandrin even though their concentration of oleandrin differed due to the concentration of oleandrin present in the extracts.
(§3) BRO (human melanoma) and Panc-1 (human pancreatic cancer) cells (8×10^3/well) were plated in a 96 well plate and allowed to attach overnight. Drug or extracts were then added to the cells. After 72 hr of incubation, relative cell proliferation (relative to control untreated cells) was assessed by crystal violet staining method.

Human melanoma BRO cells = test: as above; format: cell-based; conditions: presented as μM oleandrin concentration in the extract, 72 hr incubation
Protocol: as §1, §2, §3

[2] = system: ERK (pERK) in Panc-1 cells; test: Expression of pERK, gel electropherogram (FIG. 3); format: cell-based, human
Text: (§4) FIG. 3 depicts a photograph of the relevant bands of a gel electropherogram obtained as part of an assay comparing the activity of oleandrin, hot-water extract and the SCF extract of the invention toward inhibition of phosphoryation (active form) of Akt and augmentation of (phosphorylation) of Erk.
(§5) Phosphorylation of the serine/threonine kinase known as Akt provides tumor cells with enhanced survival capability. Increased Akt activity promotes survival of tumor cells that would normally undergo death by apoptosis. In addition, pAkt is involved in cell proliferation, angiogenesis, genome instability and cell invasion and migration (Yoeli-Lerner M and Toker A. Akt/PKB Signaling in Cancer. Cell Cycle 5:603-605, 2006). All of these responses contribute to initiation and progression. Further evidence of the importance of Akt signaling in cancer comes from studies which have detected over-expression and hyper-activation (through phosphorylation) of Akt in a wide range of human tumors, and this is often linked with poor prognosis. The relative activity of the hot-water and SCF extract on critical cell signaling proteins in human pancreatic cancer (Panc-1) cells were also compared. […] The relative ability of the supercritical CO2 extract to inhibit pAkt expression is much greater than that of oleandrin or the hot water extract of Nerium oleander. […]

[3] = system: Akt (pAkt) in Panc-1 cells; test: Phosphorylation of Akt, gel electropherogram (FIG. 3); format: cell-based, human
Text: as §4, §5

PANC-1 cells = test: Cell cycle analysis by flow cytometry; format: cell-based, human; conditions: 25 nM oleandrin or extract equivalent to 25 nM oleandrin, 24 hrs
Protocol: The effect of oleandrin, the hot-water and SCF extract upon cell cycle changes of PANC-1 cells treated therewith was evaluated over a 24-hour period. Panc-1 cells were treated with 25 nM of oleandrin alone or the amount of hot water extract or supercritical CO2 extract of oleander which was equivalent to 25 nM of oleandrin for 24 hrs. Cell cycle analysis was carried out by flow cytometry. Cell division consists of two consecutive processes, mainly characterized by DNA replication and then segregation of replicated chromosomes into two separate cells. Replication of DNA occurs in a specific part of the interphase called S phase. S phase is preceded by a gap called G1 during which the cell is preparing for DNA synthesis. This is […] then followed by a gap called G2 during which the cell prepares for mitosis. Then this is followed with the mitosis phase, or M phase. G1, S, G2 and M phases are the traditional subdivisions of the standard cell cycle. Cells which are in a G2/M block such as that induced by the supercritical CO2 extract cannot undergo division.
The data are expressed as the relative percentage of cells in a given phase of the cell cycle.

CO[C@H]1C[C@H](O[C@H]2CC[C@@]3(C)[C@H](CC[C@@H]4[C@@H]3CC[C@]3(C)[C@@H](C5=CC(=O)OC5)[C@@H](OC(C)=O)C[C@]43O)C2)O[C@@H](C)[C@@H]1O [Oleandrin, oleandrin]
IC50 [1]: 0.01 µM | IC50 (Human melanoma BRO cells): 0.017 µM | expression of pERK [2]: dramatically increased | inhibition of PI3 Kinase resulting in reduction of phosphorylation of Akt [3]: reduction of phosphorylation of Akt | G1 phase, relative percentage of cells (PANC-1 cells): 30.5% | G2/M phase, relative percentage of cells (PANC-1 cells): 26.2% | S phase, relative percentage of cells (PANC-1 cells): 43.3%
